Assay results reported in patent publication US20250241926A1, “HETEROCYCLIC COMPOUNDS FOR USE IN THE TREATMENT OF CANCER” (ARTIOS PHARMA LIMITED, priority 2021, published 2025).
Like-named read-outs stand apart in the source and are kept apart here.

Biological target: T1, Human Polθ polymerase domain (aa1820-2590) (Homo sapiens, UniProt O75417)
T1 construct: Human Polθ polymerase domain (aa1820-2590) was expressed in E. Coli; made in house; host or cells: E. coli
T1 sequence (O75417 1820-2590): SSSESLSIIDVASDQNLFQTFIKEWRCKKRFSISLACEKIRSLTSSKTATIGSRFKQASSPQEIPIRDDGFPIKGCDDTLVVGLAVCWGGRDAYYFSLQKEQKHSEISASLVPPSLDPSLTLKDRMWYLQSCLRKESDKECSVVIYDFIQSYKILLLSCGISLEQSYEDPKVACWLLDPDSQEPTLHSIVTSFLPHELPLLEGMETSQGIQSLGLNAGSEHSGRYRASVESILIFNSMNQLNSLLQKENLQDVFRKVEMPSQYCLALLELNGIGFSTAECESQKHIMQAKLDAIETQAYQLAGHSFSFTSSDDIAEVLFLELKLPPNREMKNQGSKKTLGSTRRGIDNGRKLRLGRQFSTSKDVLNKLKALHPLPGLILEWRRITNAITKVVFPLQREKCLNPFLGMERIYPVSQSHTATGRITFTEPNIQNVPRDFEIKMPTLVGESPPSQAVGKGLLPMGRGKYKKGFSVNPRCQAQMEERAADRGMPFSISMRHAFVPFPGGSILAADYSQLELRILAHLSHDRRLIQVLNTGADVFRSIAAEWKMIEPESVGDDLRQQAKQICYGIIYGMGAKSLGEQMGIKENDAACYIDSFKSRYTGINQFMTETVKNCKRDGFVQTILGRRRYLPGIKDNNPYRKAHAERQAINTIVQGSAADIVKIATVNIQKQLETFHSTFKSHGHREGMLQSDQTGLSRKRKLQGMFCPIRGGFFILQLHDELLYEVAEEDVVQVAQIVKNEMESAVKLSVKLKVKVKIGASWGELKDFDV
Test: Polθ Polymerase Domain Kinact/Kl Assay (PicoGreen)
Type: biochemical
Conditions: covalent inhibitors, kobs vs [I] fit, 0.8 nM Polθ, 100 nM DNA substrate
How it was run: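 E. coli-expressed enzyme (0.8 nM final) was run with 100 nM annealed DNA substrate and dNTPs in Tris pH 7.5 buffer (1% DMSO), with EDTA stops across a time course up to 60 min. Synthesised DNA was read by PicoGreen fluorescence. kobs per inhibitor concentration was fitted from the time courses, and Kinact and KI came from the kobs-vs-[I] plot.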

Compound | kinact/KI (read-out: Kinact/KI) [M⁻¹ s⁻¹] | kinact/KI [M⁻¹ s⁻¹]
Cc1cc(C(F)(F)F)c(C#N)c(N[C@H]2CCN(CCCOC3CN(C(=O)/C=C/[C@H]4CCCN4C)C3)c3c(F)cccc3N(C)C2=O)n1 [Example 55, 2-(((S)-7-Fluoro-1-methyl-6-(3-((1-((E)-3-((R)-1-methylpyrrolidin-2-yl)acryloyl)azetidin-3-yl)oxy)propyl)-2-oxo-1,2,3,4,5,6-hexahydrobenzo[b][1,4]diazocin-3-yl)amino)-6-methyl-4-(trifluoromethyl)nicotinonitrile] | 810000 | 
C=CC(=O)N1CC(O[C@@H]2CN(CCN3CC[C@H](Nc4nc(C)cc(C(F)(F)F)c4C#N)C(=O)N(C)c4cccc(F)c43)C[C@H]2O)C1 (single isomer, unassigned) [Example 65B] | 550000 | 
C=CC(=O)N1CC2(CN(CC(O)CN3CC[C@H](Nc4nc(C)cc(C(F)(F)F)c4C#N)C(=O)N(C)c4ccccc43)C2)C1 (stereo partly drawn) [Example 36, 2-(((3S)-6-(3-(6-Acryloyl-2,6-diazaspiro[3.3]heptan-2-yl)-2-hydroxypropyl)-1-methyl-2-oxo-1,2,3,4,5,6-hexahydrobenzo[b][1,4]diazocin-3-yl)amino)-6-methyl-4-(trifluoromethyl)nicotinonitrile] | 360000 | 
Cc1cc(C(F)(F)F)c(C#N)c(N[C@H]2CCN(CCN(C)C(=O)C3CN(C(=O)/C=C/CN(C)C)C3)c3ccccc3N(C)C2=O)n1 [Example 31, (S,E)-N-(2-(4-((3-Cyano-6-methyl-4-(trifluoromethyl)pyridin-2-yl)amino)-6-methyl-5-oxo-3,4,5,6-tetrahydrobenzo[b][1,4]diazocin-1(2H)-yl)ethyl)-1-(4-(dimethylamino)but-2-enoyl)-N-methylazetidine-3-carboxamide] | 920000 | 
C=CC(=O)N1CC2(CN(CCN3CC[C@H](Nc4nc(C)cc(C(F)(F)F)c4C#N)C(=O)N(C)c4cccc(F)c43)C[C@@H](C)N2)C1 [Example 63, 2-(((S)-6-(2-((R)-2-Acryloyl-6-methyl-2,5,8-triazaspiro[3.5]nonan-8-yl)ethyl)-7-fluoro-1-methyl-2-oxo-1,2,3,4,5,6-hexahydrobenzo[b][1,4]diazocin-3-yl)amino)-6-methyl-4-(trifluoromethyl)nicotinonitrile] | 860000 | 
C=CC(=O)N1CC2(CN(CCN3CC[C@H](Nc4nc(C)cc(C(F)(F)F)c4C#N)C(=O)N(C)c4ccccc43)CCO2)C1 [Example 21, (S)-2-((6-(2-(2-Acryloyl-5-oxa-2,8-diazaspiro[3.5]nonan-8-yl)ethyl)-1-meth-yl-2-oxo-1,2,3,4,5,6-hexa-hydrobenzo[b][1,4]diazocin-3-yl)amino)-6-methyl-4-(trifluorometh-yl)nicotinonitrile] | 1.2e+06 | 
C=CC(=O)N1CC(OCCN2CC[C@H](Nc3nc(C)cc(C(F)(F)F)c3C#N)C(=O)N(C)c3ccccc32)C1 [Example 51, (S)-2-((6-(2-((1-Acryloylazetidin-3-yl)oxy)ethyl)-1-methyl-2-oxo-1,2,3,4,5,6-hexahydrobenzo[b][1,4]diazocin-3-yl)amino)-6-methyl-4-(trifluoromethyl)nicotinonitrile] | 70000 | 
C=CC(=O)N1CC2(CN(CCN3CC[C@H](Nc4nc(C)cc(C(F)(F)F)c4C#N)C(=O)N(C)c4ccccc43)C2)C1 [Example 22, (S)-2-((6-(2-(6-Acryloyl-2,6-diazaspiro[3.3]heptan-2-yl)ethyl)-1-methyl-2-oxo-1,2,3,4,5,6-hexa-hydrobenzo[b][1,4]diazocin-3-yl)amino)-6-methyl-4-(trifluorometh-yl)nicotinonitrile] | 500000 | 
C=CC(=O)N1CCN(CC(O)CN2CC[C@H](Nc3nc(C)cc(C(F)(F)F)c3C#N)C(=O)N(C)c3ccc(F)cc32)CC1 (mixture of isomers) [Example 33A, 2-(((S)-6-((S/R)-3-(4-Acryloylpiperazin-1-yl)-2-hydroxypropyl)-8-fluoro-1-methyl-2-oxo-1,2,3,4,5,6-hexahydrobenzo[b][1,4]diazocin-3-yl)amino)-6-methyl-4-(trifluoromethyl)nicotinonitrile] |  | 150000
Cc1cc(C(F)(F)F)c(C#N)c(N[C@H]2CCN(CCCOC3CN(C(=O)/C=C/CN(C)C)C3)c3ccccc3N(C)C2=O)n1 [Example 41, (S, E)-2-((6-(3-((1-(4-(Dimethylamino)but-2-enoyl)azetidin-3-yl)oxy)propyl)-1-methyl-2-oxo-1,2,3,4,5,6-hexahydrobenzo[b][1,4]diazocin-3-yl)amino)-6-methyl-4-(trifluoromethyl)nicotinonitrile] | 1.4e+06 | 
C=CC(=O)N1CC(c2noc(CN3CC[C@H](Nc4nc(C)cc(C(F)(F)F)c4C#N)C(=O)N(C)c4cccc(F)c43)n2)C1 [Example 67, (S)-2-((6-((3-(1-Acryloylazetidin-3-yl)-1,2,4-oxadiazol-5-yl)methyl)-7-fluoro-1-methyl-2-oxo-1,2,3,4,5,6-hexahydrobenzo[b][1,4]diazocin-3-yl)amino)-6-methyl-4-(trifluoromethyl)nicotinonitrile] | 1.3e+06 | 
Cc1cc(C(F)(F)F)c(C#N)c(N[C@H]2CCN(CC(O)CN3CCN(C(=O)/C=C/CN(C)C)CC3)c3c(F)cccc3N(C)C2=O)n1 (mixture of isomers) [Example 32A, 2-(((S)-6-((S/R)-3-(4-((E)-4-(Dimethylamino)but-2-enoyl)piperazin-1-yl)-2-hydroxypropyl)-7-fluoro-1-methyl-2-oxo-1,2,3,4,5,6-hexahydrobenzo[b][1,4]diazocin-3-yl)amino)-6-methyl-4-(trifluoromethyl)nicotinonitrile] |  | 770000
C=CC(=O)N1CCN(CC(O)CN2CC[C@H](Nc3nc(C)cc(C(F)(F)F)c3C#N)C(=O)N(C)c3ccc(F)cc32)CC1 (single isomer, unassigned) [Example 33B] | 120000 | 
(S,E)-2-((6-(2-((2- (4-(Dimethyl- amino)but-2-eno- yl)-2-azaspiro[3.3] heptan-6-yl)-oxy)- ethyl)-7-fluoro-1- methyl-2-oxo- 1,2,3,4,5,6-hexa- hydrobenzo[b] [1,4]diazocin-3- yl)amino)-6-meth- yl-4-(trifluoro- methyl)nicotino- nitrile [Example 45] |  | 5.7e+06
C=CC(=O)N1CC2(CN(CCN3CC[C@H](Nc4nc(C)cc(C(F)(F)F)c4C#N)C(=O)N(C)c4ccc(Cl)cc43)C2)C1 [Example 7, (S)-2-((6-(2-(6-Acryloyl-2,6-diazaspiro[3.3]heptan-2-yl)ethyl)-8-chloro-1-methyl-2-oxo-1,2,3,4,5,6-hexahydrobenzo[b][1,4]diazocin-3-yl)amino)-6-methyl-4-(trifluoromethyl)nicotinonitrile] | 460000 | 
C=CC(=O)N1CC2(CCN(CCN3CC[C@H](Nc4nc(C)cc(C(F)(F)F)c4C#N)C(=O)N(C)c4cccc(F)c43)CC2)C1 [Example 8, (S)-2-((6-(2-(2-Acryloyl-2,7-diazaspiro[3.5]nonan-7-yl)ethyl)-7-fluoro-1-methyl-2-oxo-1,2,3,4,5,6-hexahydrobenzo[b][1,4]diazocin-3-yl)amino)-6-methyl-4-(trifluorometh-yl)nicotinonitrile] | 490000 | 
C=CC(=O)N1CC(N2CC(=O)N(C)C(CN3CC[C@H](Nc4nc(C)cc(C(F)(F)F)c4C#N)C(=O)N(C)c4cccc(F)c43)C2)C1 (mixture of isomers) [Example 58A, 2-(((S)-6-(((S/R)-4-(1-Acryloylazetidin-3-yl)-1-methyl-6-oxopiperazin-2-yl)methyl)-7-fluoro-1-methyl-2-oxo-1,2,3,4,5,6-hexahydrobenzo[b][1,4]diazocin-3-yl)amino)-6-methyl-4-(trifluoromethyl)nicotinonitrile] |  | 60000
C=CC(=O)N1CC2(CN(CCN3CC[C@H](Nc4nc(C)cc(C(F)(F)F)c4C#N)C(=O)N(C)c4cccc(F)c43)C[C@H]3COCCN32)C1 [Example 62, 2-(((S)-6-(2-((S)-1-Acryloyltetrahydro-1′H-spiro[azetidine-3,6′-pyrazino[2,1-c][1,4]oxazin]-8′(7′H)-yl)ethyl)-7-fluoro-1-methyl-2-oxo-1,2,3,4,5,6-hexahydrobenzo[b][1,4]diazocin-3-yl)amino)-6-methyl-4-(trifluoromethyl)nicotinonitrile] | 1.8e+06 | 
Cc1cc(C(F)(F)F)c(C#N)c(N[C@H]2CCN(CCN3CCOC4(C3)CN(C(=O)/C=C/CN(C)C)C4)c3c(F)cccc3N(C)C2=O)n1 [Example 1, (S,E)-2-((6-(2-(2-(4-(Dimethylamino)but-2-enoyl)-5-oxa-2,8-diazaspiro[3.5]nonan-8-yl)ethyl)-7-fluoro-1-methyl-2-oxo-1,2,3,4,5,6-hexahydrobenzo[b][1,4]diazocin-3-yl)amino)-6-methyl-4-(trifluoromethyl)nicotinonitrile] | 3.1e+06 | 
